Assay results from US10981932B2, “Macrocyclic indole derivatives” (Bayer Aktiengesellschaft, priority 2016, dated 2021).
Counter-ions that a name gives are not always drawn. Like-named read-outs stand apart in the source and are kept apart here.

Experiments:
[1] = tested on: SUDHL10; assay: Induction of caspase-3/7 activity (Caspase-Glo 3/7), SUDHL10; assay type: cell-based; settings: caspase-3/7 induction, SUDHL10 cells, 3 h treatment, median
Outline: (§1)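 DLBCL lines SUDHL5 and SUDHL10 treated with compounds for 3 h at 37 °C; caspase-3/7 activity read by Caspase-Glo 3/7 luminescence. Medium-only background subtracted; EC50 fitted with bottom fixed at 1 and top fixed at the reference compound's maximal induction.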

[2] = tested on: A2780; assay: Anti-proliferative effect (CellTiter-Glo, 72 h), A2780; assay type: cell-based; settings: Homo sapiens, A2780, 72 h, A2780 cells, median, read-out: IC50 antiproliferation assay A2780 [M] (median)
Outline: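 72 h compound treatment, 37 °C humidified; CellTiter-Glo added, 10 min incubation, luminescence read; day 0 plate read in parallel for baseline.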

[3] = tested on: SUDHL5; assay: Induction of caspase-3/7 activity (Caspase-Glo 3/7), SUDHL5; assay type: cell-based; settings: caspase-3/7 induction, SUDHL5 cells, 3 h treatment, median
Outline: as §1

[4] = target: MCL-1 (Homo sapiens, UniProt Q07820); assay: Protein-protein interaction assay MCL-1/Noxa BH3 peptide (MCL-1 assay), TR-FRET; assay type: binding; settings: MBP-MCL-1 / Noxa BH3-derived peptide, median
Outline: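 IC50 came from a 4-parameter fit of the normalized 665/620 nm TR-FRET ratio (anti-MBP Eu-cryptate/streptavidin-XL665). Compounds (0.1 nM–20 μM, duplicates) were preincubated 10 min at 22 °C with 1 nM MBP-MCL-1 in pH 7 Tris/NaCl/KF buffer, then read after 1 h at 22 °C plus overnight at 4 °C.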

[5] = tested on: SUDHL5; assay: Induction of cytotoxicity (CellTiter-Glo, 5 h), SUDHL5
[6] = read-out: Cytotox SUDHL5 [M] (median), SUDHL5 cells, cytotoxicity induction, CellTiter-Glo, 5 h incubation, median
[7] = Homo sapiens, SU-DHL-5, 5 h, read-out: Cytotox SUDHL5 [M] (median), SUDHL5 cells, cytotoxicity induction, CellTiter-Glo, 5 h incubation, median

MCL-1, sequence (Q07820 whole entry): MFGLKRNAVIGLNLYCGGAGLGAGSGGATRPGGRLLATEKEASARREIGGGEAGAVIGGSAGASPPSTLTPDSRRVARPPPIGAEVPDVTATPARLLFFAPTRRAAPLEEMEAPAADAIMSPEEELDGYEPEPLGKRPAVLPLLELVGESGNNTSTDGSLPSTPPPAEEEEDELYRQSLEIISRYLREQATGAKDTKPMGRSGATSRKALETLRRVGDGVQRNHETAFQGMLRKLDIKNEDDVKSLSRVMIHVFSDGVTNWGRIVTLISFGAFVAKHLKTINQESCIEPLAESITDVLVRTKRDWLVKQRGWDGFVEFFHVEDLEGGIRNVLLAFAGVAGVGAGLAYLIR

Row | EC50 [1] [µM] | IC50 [2] [M] | EC50 [3] [µM] | IC50 [4] [µM] | EC50 ([1]; Homo sapiens, SU-DHL10, 3 h) [µM] | EC50 ([3]; Homo sapiens, SU-DHL-5, 3 h) [µM] | Compound | IC50 [5, 6] [M] | IC50 [5, 7] [M]
1 | 2.21 | 1.83e-05 | 1.56 | 0.000787 |  |  | Cn1nc(COc2ccc(N3CCN(C(=O)C4CC4)CC3)cc2)c2c1COCCCCn1c(C(=O)O)c(CCCOc3cccc4ccccc34)c3cccc-2c31 (single isomer, unassigned; enantiomer 1) [Example 1-22, 3-({4-[4-(cyclopropylcarbonyl)piperazin-1-yl]phenoxy}methyl)-1-methyl-7-[3-(naphthalen-1-yloxy)propyl]-1,10,11,12,13,15-hexahydropyrazolo[4′,3′:9,10][1,6]oxazacycloundecino[8,7,6-hi]indole-8-carboxylic Acid (Enantiomer 1)] | 1.37e-06 | 
2 | 1.74 | 7.08e-06 | 0.776 | 0.00143 |  |  | CN1CCCn2c(C(=O)O)c(CCCOc3cccc4ccccc34)c3cccc(c32)-c2c(COc3ccc(N4CCN(S(C)(=O)=O)CC4)cc3)nn(C)c2C1 (single isomer, unassigned; enantiomer 1) [Example 1-46, (+)-7,9-dimethyl-11-({4-[4-(methylsulfonyl)piperazin-1-yl]phenoxy}methyl)-1-[3-(naphthalen-1-yloxy)propyl]-4,5,6,7,8,9-hexahydropyrazolo[3′,4′:7,8][1,5]diazecino[9,10,1-hi]indole-2-carboxylic Acid (Enantiomer 1)] | 1.53e-06 | 
3 |  | 2.48e-05 |  | 0.00799 | 11.1 | 6.57 | CN1CCCn2c(C(=O)O)c(CCCOc3cccc4ccccc34)c3cccc(c32)-c2c(CN3CCOCC3)nn(C)c2C1 (single isomer, unassigned; enantiomer 1) [Example 1-43, (+)-7,9-dimethyl-11-(morpholin-4-ylmethyl)-1-[3-(naphthalen-1-yloxy)propyl]-4,5,6,7,8,9-hexahydropyrazolo[3′,4′:7,8][1,5]diazecino[9,10,1-hi]indole-2-carboxylic Acid (Enantiomer 1)] |  | 6.9e-06
4 |  | 8.81e-06 |  | 0.0197 |  |  | CC(C)c1c2c(nn1C)CN(C)CCCn1c(C(=O)O)c(CCCOc3cccc4ccccc34)c3cccc-2c31 (racemic) [Example 113, (rac)-7,10-dimethyl-1-[3-(naphthalen-1-yloxy)propyl]-11-(propan-2-yl)-4,5,6,7,8,10-hexahydropyrazolo[3′,4′:7,8][1,5]diazecino[9,10,1-hi]indole-2-carboxylic Acid] |  | 6.84e-06
5 | 1.7 | 1.72e-05 | 0.661 | 0.00128 |  |  | CCc1c2c(nn1C)COCCCCn1c(C(=O)O)c(CCCOc3cccc4ccccc34)c3ccc(C)c-2c31 (single isomer, unassigned; enantiomer 1) [Example 154, 3-Ethyl-2,4-dimethyl-7-[3-(1-naphthyloxy)propyl]-2,10,11,12,13,15-hexahydropyrazolo[4′,3′:9,10][1,6]oxazacycloundecino[8,7,6-hi]indole-8-carboxylic acid-N-ethylethanamine Salt (Enantiomer 1)] | 1.08e-06 | 
6 |  | 3.01e-05 |  | 0.0453 | 24.7 | 27.9 | COCCn1nc2c(c1CN1CCOCC1)-c1cccc3c(CCCOc4cccc5ccccc45)c(C(=O)O)n(c13)CCCN(C)C2 (single isomer, unassigned; enantiomer 1) [Example 057, 10-(2-methoxyethyl)-7-methyl-11-(morpholin-4-ylmethyl)-1-[3-(naphthalen-1-yloxy)propyl]-4,5,6,7,8,10-hexahydropyrazolo[3′,4′:7,8][1,5]diazecino[9,10,1-hi]indole-2-carboxylic Acid (Enantiomer 1)] |  | 2.5e-05
7 | 3.84 | 3.02e-05 | 2.44 | 0.00172 |  |  | Cc1c2c(nn1C)COCCCCn1c(C(=O)O)c(CCCOc3cccc4ccccc34)c3cccc-2c31 (single isomer, unassigned; enantiomer 1) [Example 1-37, (+)-2,3-dimethyl-7-[3-(naphthalen-1-yloxy)propyl]-2,10,11,12,13,15-hexahydropyrazolo[4′,3′:9,10][1,6]oxazacycloundecino[8,7,6-hi]indole-8-carboxylic Acid (Enantiomer 1)] | 1.92e-06 | 
8 | 15.5 | 2.15e-05 | 3.59 | 0.00451 |  |  | COCCn1nc2c(c1C1CC1)-c1cccc3c(CCCOc4cccc5ccccc45)c(C(=O)O)n(c13)CCCCOC2 (single isomer, unassigned; enantiomer 1) [Example 085, 3-Cyclopropyl-2-(2-methoxyethyl)-7-[3-(naphthalen-1-yloxy)propyl]-2,10,11,12,13,15-hexahydropyrazolo[4′,3′:9,10][1,6]oxazacycloundecino[8,7,6-hi]indole-8-carboxylic acid-N-ethylethanamine Salt (Enantiomer 1)] | 3.91e-06 | 
9 | 3.48 | 2e-05 | 0.881 | 0.000919 |  |  | CCc1c2c(nn1C)COCCCCn1c(C(=O)O)c(CCCOc3cccc4ccccc34)c3cccc-2c31 (single isomer, unassigned; enantiomer 1) [Example 148, 3-Ethyl-2-methyl-7-[3-(1-naphthyloxy)propyl]-2,10,11,12,13,15-hexahydropyrazolo[4′,3′:9,10][1,6]oxazacycloundecino[8,7,6-hi]indole-8-carboxylic acid-N-ethylethanamine Salt (Enantiomer 1)] | 9.08e-07 | 
10 | 6.64 | 2.71e-05 | 2.83 | 0.00119 |  |  | Cc1c2c(nn1C1CC1)COCCCCn1c(C(=O)O)c(CCCOc3cccc4ccccc34)c3cccc-2c31 (single isomer, unassigned; enantiomer 1) [Example 093, 2-cyclopropyl-3-methyl-7-[3-(naphthalen-1-yloxy)propyl]-2,10,11,12,13,15-hexahydropyrazolo[4′,3′:9,10][1,6]oxazacycloundecino[8,7,6-hi]indole-8-carboxylic acid-N-ethylethanamine Salt (Enantiomer 1)] | 2.1e-06 | 
11 |  | 1.68e-05 | 8.69 | 0.00437 | 30.5 |  | CCn1nc2c(c1C1CC1)-c1cccc3c(CCCOc4cccc5ccccc45)c(C(=O)O)n(c13)CCCCOC2 (single isomer, unassigned; enantiomer 1) [Example 082, 3-cyclopropyl-2-ethyl-7-[3-(naphthalen-1-yloxy)propyl]-2,10,11,12,13,15-hexahydropyrazolo[4′,3′:9,10][1,6]oxazacycloundecino[8,7,6-hi]indole-8-carboxylic acid-N-ethylethanamine Salt (Enantiomer 1)] | 8.19e-06 | 
12 | 2.94 | 1.4e-05 | 2.12 | 0.00206 |  |  | Cc1ccc2c(CCCOc3cccc4ccccc34)c(C(=O)O)n3c2c1-c1c(nn(C)c1C)CN(C)CCC3 (single isomer, unassigned; enantiomer 1) [Example 073, 7,10,11,12-tetramethyl-1-[3-(naphthalen-1-yloxy)propyl]-4,5,6,7,8,10-hexahydropyrazolo[3′,4′:7,8][1,5]diazecino[9,10,1-hi]indole-2-carboxylic Acid (Enantiomer 1)] | 1.79e-06 | 
13 |  | 1.17e-05 |  | 0.00334 | 3.91 | 2.85 | CCc1c2c(nn1C)CN(C)CCCn1c(C(=O)O)c(CCCOc3cccc4ccccc34)c3ccc(C)c-2c31 (racemic) [Example 144, (rac)-11-ethyl-7,10,12-trimethyl-1-[3-(1-naphthyloxy)propyl]-4,5,6,7,8,10-hexahydropyrazolo[3′,4′:7,8][1,5]diazecino[9,10,1-hi]indole-2-carboxylic Acid] |  | 2.55e-06
14 |  | 1.91e-05 | 8.87 | 0.00479 | 20.3 |  | CC(C)OCc1nn(C)c2c1-c1cccc3c(CCCOc4cccc5ccccc45)c(C(=O)O)n(c13)CCCCN(C)C2 (single isomer, unassigned) [Example 1-74, 1,14-dimethyl-7-[3-(naphthalen-1-yloxy)propyl]-3-[(propan-2-yloxy)methyl]-10,11,12,13,14,15-hexahydro-1H-pyrazolo[3′,4′:8,9][1,6]diazacycloundecino[10,11,1-hi]indole-8-carboxylic Acid] | 9.82e-06 | 
15 | 8.64 |  | 4.96 | 0.00355 |  |  | COCc1nn(C)c2c1-c1cccc3c(CCCOc4cccc5ccccc45)c(C(=O)O)n(c13)CCCN(C)C2 (single isomer, unassigned; enantiomer 2) [Example 1-104, 11-(methoxymethyl)-7,9-dimethyl-1-[3-(1-naphthyloxy)propyl]-4,5,6,7,8,9-hexahydropyrazolo[3′,4′:7,8][1,5]diazecino[9,10,1-hi]indole-2-carboxylic Acid (Enantiomer 2)] | 7.21e-06 | 
